Values joined by “and” are separate entries in the source; they are usually repeats but may differ in a detail not shown here. Equal values may be shown once. Read-outs that look alike come from different tables or passages of the source.
Assays:
ACF [1] = test system: ACF
apoB mRNA editing [2] = details: for apoB mRNA editing, Mean ± SEM: 6 hours; for apoB mRNA editing (increased from 66%): about 10 times the IC50 for PP1 (cantharidin 4.7 μM)
Experimental: Protein phosphatase inhibitor studies. […] The compounds' effects on apoB mRNA editing were evaluated by RT-PCR and poisoned-primer extension analysis (Sowden et al. Rna 2:274-88 (1996)). The effect of 470 nM cantharidin on ACF subcellular distribution was investigated by treating primary hepatocyte cultures for 6 hours followed by nuclear and cytoplasmic extract preparation.
It was reasoned that if phosphorylation of ACF regulated editing activity, treatment of rat primary hepatocytes with phosphatase inhibitors might stimulate apoB mRNA editing activity. […] The experiments (n=4-6) were done over a number of months and therefore represent primary hepatocytes from several rats.
Editing activity was quantified from primary hepatocytes incubated with 10-100-times the EC50 of the various […] (Calbiochem).

apoB protein = experiment: intracellular and secreted apoB protein in primary hepatocytes (radioimmunoassay); type: cell-based, rat
Experimental: The effect of Cantharidin on the abundance of intracellular and secreted apoB protein was also evaluated. Primary hepatocyte cultures were treated with Cantharidin at the IC50 of PP1 and 10-times higher (n=5 for each condition). Intracellular apoB protein in hepatocyte cytoplasmic extracts and apoB protein secreted into the media as VLDL was quantified as ng apoB protein per mg total protein in the Sparks' lab by radioimmunoassay using a monoclonal antibody against apoB as described previously (Chirieac et al. (2000), Au et al. (2004), Sparks, J D and Sparks, C E J Biol Chem 265:8854-62 (1990)) (FIG. 13). For these experiments, insulin was withdrawn from control and Cantharidin-treated cultures 24 hours prior to the addition of Cantharidin in order to isolate the effect of PP 1 inhibition in the absence of insulin stimulated kinase activity.
If alterations in ACF phosphorylation are consequently to ApoB metabolism, then intracellular ApoB protein abundance should be responsive to inhibition of PP1. This was evaluated in treated primary hepatocytes by quantifying ApoB protein in hepatocyte cytoplasmic extracts and secreted into the media as VLDL using ApoB radioimmunoassay and expressed as ng ApoB protein per mg total protein (FIG. 13). For these experiments insulin was withdrawn from control and cantharidin-treated cultures 24 hours prior to the addition of cantharidin in order to isolate the effect of PP I inhibition in the absence of insulin stimulated kinase activity. […] This is the same dose response that was reported for maximal phospho-ACF recovery Mehta, A. et al (2002)).

PP2A = details: cited from earlier work
PP1 = details: cited from earlier work
ACF [3] = experiment: ACF phosphorylation in 32P-labeled rat primary hepatocytes (ACF immunoprecipitation, autoradiography); type: cell-based
Experimental: In vivo phosphorylation of ACF. In vivo ^32P labeling was performed by intraperitoneal injection of rats with 12.5 mCi of orthophosphoric acid (10 mCi/ml ^32PO4; NEN, Boston, Mass.) buffered with 50 mM HEPES, pH 7.0 and 150 mM NaCl. After 4 hours, rats were sacrificed and hepatic cytoplasmic and nuclear extracts prepared. Primary hepatocyte cultures in 60 mm dishes were incubated in phosphate-free Minimum Essential Eagle Media (Sigma) containing 0.1 nM porcine insulin for 6 hours and subsequently in fresh media containing 10 nM insulin (equivalent to that seen in post-prandial serum) or 0.45% to 0.9% ethanol (AAPER Alcohol and Chemical Co., Shelbyville, Ky.) (Van Mater et al. (1998), Yang et al. (2000)) plus 2.0 mCi orthophosphoric acid. Cultures were labeled for 4 hours prior to extract preparation.
To evaluate the effect of phosphatase inhibition on ACF phosphorylation, cultures were pre-incubated for 2 hours with 470 nM cantharadin in phosphate-free Waymouth's media and subsequently supplemented with 0.5 mCi ^32pO4 and incubated for an additional 4 hours. Cultures were harvested and subcellular extracts prepared.
Immunological techniques. […] For immunoprecipitation analyses all radiolabeled extracts were adjusted to 5 mM MgCl2 and digested with 100 units of DNase I (Promega), RNase T1 (Roche, Ind.), and RNase A (Sigma) for 1 hour on ice to remove radiolabeled nucleic acid. Where applicable, extracts were incubated overnight with ACF CT antibody at 4° C. and subsequently reacted with Protein A-agarose (Oncogene Research Products, Boston, Mass.) pre-washed with 1×TBS/10 mM NaF. The immuno-absorbed material was washed 3 times with 1×TBS/10 mM NaF, 3 times with 1×TBS/1 M NaCl (Yang et al. (1997)) and lastly 3 times with 1×TBS. Immuno-absorbed material to be treated with alkaline phosphatase was washed with 50 mM Tris, pH 8.4, 1 mM MgCl2, 0.1 mM ZnCl2, 25% glycerol and then incubated with 5 U CIAP for 1 hour at 30° C. and then washed 6 times with 1×TBS. ACF-antibody complexes were eluted with 3 M sodium thiocyanate, acetone precipitated and analyzed by 10.5% SDS-PAGE followed by autoradiography and/or western blotting with ACF NT antibody. For ACF immunoprecipitation from gradient fractions an equal volume of pooled gradient fractions from sedimentation zones of interest were reacted with sub-saturating amounts of ACF CT antibody to ensure that the recovery of phospho-ACF was not simply a reflection of ACF abundance in each zone.
To evaluate this, cytoplasmic and nuclear extracts from radiolabeled primary hepatocyte cultures were sedimented through 10%-50% glycerol gradients. […] The ACF immunoprecipitates were resolved by SDS-PAGE, transferred to nitrocellulose, autoradiographed and subjected to phosphorimager scanning to detect and quantify radiolabeled proteins prior to immunoblotting with the ACF NT antibody.

AC = details: cited from earlier work
apoB mRNA editing [4] = experiment: apoB mRNA editing in McArdle cells (ethanol, ACF wild type, mutants and isoforms); type: cell-based, rat; details: wild type McArdle cells, ethanol 4 hours
Experimental: McArdle RH7777 cells (ATCC Manassas, Va.) stably expressing HA epitope-tagged APOBEC-1 (Yang et al. J Biol Chem 272:27700-6 (1997)) were treated for 4 hours with 0.9% ethanol and fractionated into nuclear extracts (Van Mater et al. (1998)).
To calibrate the system cells were incubated in the presence of ethanol for 4 hours and the amount of edited apoB mRNA determined.
The overall expression and subcellular localization of epitope tagged ACF isoforms is established by western blotting of nuclear and cytoplasmic extracts (prepared using NE-PER system; Pierce). These biochemical studies are complemented by immunofluorescence microscopy of paraformaldehyde fixed cells reacted with epitope tag or ACF isoform-specific antibodies. In pilot experiments varying levels of HA-tagged ACF43 and ACF45 were expressed by transfecting differing amounts of cDNA into McArdle or McAPOBEC cells (FIGS. 35A & C, western blots). […] ACF expression levels, subcellular localization and editing activity are determined from replicate experiments and the relative affects of overexpressing each isoform compared in the absence (negative control) or presence of ethanol and to the response seen in wild type cells (positive control).

ACF [5] = experiment: hepatic ACF nuclear retention in lean and ob/ob mice after insulin challenge; type: in vivo, mouse; details: 4 h following 1.5 IU insulin/kg BW
Experimental: The mice are insulin-resistant as evident in elevated blood glucose (180-220 mg/dl after fasting) and lack a significant response to challenge when injected with 1.5 IU of insulin/kg BW. It has been shown that apobec-1 gene expression and apoB mRNA editing is markedly stimulated by insulin (Sowden, M. P. et al. (2002); Funahashi, T. F. et al (1995); Phung, T. L. et al. Metabolism 45, 1056-1058 (1996); von Wronski, M. A. et al. Metabolism 47, 869-73 (1998)). As a further indicator of the insulin-resistant state of these animals, it is apparent that hepatic apoB mRNA editing is not stimulated compared to cogenic lean mice (FIG. 40). The results from three fed animals as lean, ob/ob and 4 h Insulin-treated ob/ob mice are shown. Editing was evaluated using the established poisoned-primer extension assay for quantifying edited apoB mRNA where % editing is calculated from PhosphorImager scans as the counts in the edited band, divided by the sum of the counts in the edited plus unedited bands X 100. The nuclear-cytoplasmic distribution of ACF was next assessed in lean and ob/ob mouse liver without or with insulin challenge (4 h following 1.5 IU insulin/kg BW). […] The fold-nuclear retention of total cellular ACF was calculated from these values and is provided at the bottom of the image.

[6] = 0.5 μM (IC50 of PP1), insulin withdrawn 24 hours before
[7] = activation of cAMP dependent kinases

## C[C@@]12C(=O)OC(=O)[C@]1(C)[C@H]1CC[C@@H]2O1 [Cantharidin]
ACF [1]; 470 nM, 4 hours
  nuclear ACF (control nuclear to cytoplasmic 1:1): five-fold increase in nuclear ACF
ACF [1]; 0.5 μM (IC50 of PP1)
  nuclear ACF compared to untreated control hepatocytes: marked increase in nuclear ACF
apoB mRNA editing [2]; 4.7 nM
  apoB mRNA editing, Mean ± SEM: 62 ± 2%
apoB mRNA editing [2]; 47 nM
  apoB mRNA editing, Mean ± SEM: 64 ± 1%
apoB mRNA editing [2]; 470 nM
  apoB mRNA editing, Mean ± SEM: 75 ± 1%
apoB mRNA editing [2]; 470 nM, the IC50 for PP1
  effect on apoB mRNA editing: reproducible, but not statistically significant increase in editing
apoB mRNA editing [2]; 4.7 μM
  apoB mRNA editing, Mean ± SEM: 91 ± 1%
apoB mRNA editing [2]
  apoB mRNA editing (increased from 66%): > 90%
apoB mRNA editing [2]; concentration not given
  effect on apoB mRNA editing: stimulated apoB mRNA editing
apoB protein; [6]
  reduction in intracellular (cell) apoB relative to untreated hepatocytes: 22%
  reduction in secreted (media) apoB relative to untreated hepatocytes: 17%
apoB protein; 5 μM
  reduction in secreted apoB: ≥ 30%
apoB protein; 5 μM (10-times the IC50)
  reduction in intracellular apoB: ≥ 60%
PP2A
  IC50: 40 nM
PP2A; listed as cantharidin
  IC50: 47 nM
PP1
  IC50: 473 nM
PP1; listed as cantharidin
  IC50: 470 nM
ACF [3]; 470 nM
  ACF phosphorylation: increased

## CC1(C)C(C=C(Cl)Cl)C1C(=O)OC(C#N)c1cccc(Oc2ccccc2)c1 (stereo not drawn) [Cypermethrin]
apoB mRNA editing [2]; 50 pM
  apoB mRNA editing, Mean ± SEM: 69 ± 4%
apoB mRNA editing [2]; 5 nM
  apoB mRNA editing, Mean ± SEM: 66 ± 4%
apoB mRNA editing [2]; concentration not given
  effect on apoB mRNA editing: did not affect significantly apoB mRNA editing

## O=C(O)[C@@H]1[C@H](C(=O)O)[C@H]2CC[C@@H]1O2 [Endothall]
apoB mRNA editing [2]; 100 nM
  apoB mRNA editing, Mean ± SEM: 66 ± 2%
apoB mRNA editing [2]; 500 nM
  apoB mRNA editing, Mean ± SEM: 65 ± 2%
apoB mRNA editing [2]; 5 μM
  apoB mRNA editing, Mean ± SEM: 64 ± 3%
apoB mRNA editing [2]; 50 μM
  apoB mRNA editing, Mean ± SEM: 83 ± 2%
apoB mRNA editing [2]; 10-times the IC50 for PP1
  effect on apoB mRNA editing: stimulated editing to statistically significant levels

## C=C[C@@]1(C)CC(=O)[C@]2(O)[C@@]3(C)[C@@H](O)CCC(C)(C)[C@@H]3[C@H](O)[C@H](OC(C)=O)[C@@]2(C)O1 [Forskolin]
apoB mRNA editing [2]; 4 μM
  apoB mRNA editing, Mean: 70.6%
apoB mRNA editing [2]; 40 μM
  apoB mRNA editing, Mean: 68.5%
apoB mRNA editing [2]; 120 μM
  apoB mRNA editing, Mean: 69%

## O=S(=O)(NCCNC/C=C/c1ccc(Br)cc1)c1cccc2cnccc12 [H89]
apoB mRNA editing [2]
  effect on editing in hepatocytes: stimulated

## CC(C)NCC(O)c1ccc(O)c(O)c1 (stereo not drawn) [Isoproterenol]
AC; [7]
  EC50: 50000 nM
AC; range printed with mixed units
  EC50: 1 to 100000 nM

## COc1ccc(S(=O)(=O)N(CCO)c2ccccc2CN(C)C/C=C/c2ccc(Cl)cc2)cc1 [KN93]
apoB mRNA editing [2]
  effect on editing in hepatocytes: stimulated

## O=S(=O)(c1cccc2c(I)cccc12)N1CCCNCC1 [ML-7]
apoB mRNA editing [2]
  effect on editing in hepatocytes: did not affect editing

## C=C1[C@@H](O)[C@@H]2O[C@]3(CC[C@H](/C=C/[C@@H](C)[C@@H]4CC(C)=C[C@@]5(O[C@H](C[C@@](C)(O)C(=O)O)CC[C@H]5O)O4)O3)CC[C@H]2O[C@@H]1[C@@H](O)C[C@H](C)[C@H]1O[C@@]2(CCCCO2)CC[C@H]1C [Okadaic acid]
apoB mRNA editing [2]; 1 nM
  apoB mRNA editing, Mean ± SEM: 72 ± 4%
apoB mRNA editing [2]; 10 nM
  apoB mRNA editing, Mean ± SEM: 74 ± 4%
apoB mRNA editing [2]; 100 nM
  apoB mRNA editing, Mean ± SEM: 91 ± 2%
apoB mRNA editing [2]
  apoB mRNA editing (increased from 66%): greater than 90%
apoB mRNA editing [2]; concentration not given
  effect on apoB mRNA editing: stimulated

## COc1cccc(-c2cc(=O)c3ccccc3o2)c1N [PD98059]
apoB mRNA editing [2]
  effect on editing in hepatocytes: did not affect editing

## CCCCCCCCCCCCCC(=O)O[C@@H]1[C@@H](C)[C@@]2(O)[C@@H](C=C(CO)C[C@]3(O)C(=O)C(C)=C[C@@H]23)[C@@H]2C(C)(C)[C@]12OC(C)=O [PMA]
apoB mRNA editing [2]; 500 nM
  apoB mRNA editing, Mean: 68.8%
apoB mRNA editing [2]; 5 μM
  apoB mRNA editing, Mean: 64.9%
apoB mRNA editing [2]; 50 μM
  apoB mRNA editing, Mean: 63%

## CCO [ethanol]
apoB mRNA editing [2]
  editing in metabolic state of rat hepatocytes (model, basal ~65%): ~95%
apoB mRNA editing [4]
  increase in editing activity: 52%
  percent editing (from 21%): 32%
ACF [3]; 0.45% ethanol, 4 hours
  increase of phosphoACF in nuclear 27S editosomes: 3.5 fold
ACF [3]; 0.9% ethanol during the labeling period
  increase of phosphoserine in immunopurified ACF: 1.5 fold

## Glucagon
apoB mRNA editing [2]; 1 nM
  apoB mRNA editing, Mean: 62.2%
apoB mRNA editing [2]; 10 nM
  apoB mRNA editing, Mean: 59.5%
apoB mRNA editing [2]; 100 nM
  apoB mRNA editing, Mean: 58.3%
AC; [7]
  EC50: 0.1 to 100 nM
AC; activation of cAMP dependent kinases, listed as glucagon
  EC50: 50 nM

## insulin: porcine insulin (Sigma)
apoB mRNA editing [2]
  editing in metabolic state of rat hepatocytes (model, basal ~65%): ~80%
ACF [5]; lean mice
  hepatic ACF nuclear retention, fold change: 4 fold
ACF [5]; ob/ob mice
  hepatic ACF nuclear retention, fold change: 0.9 fold
ACF [3]; 10 nM insulin, 4 hours
  increase of phosphorylated ACF in nuclear 27S editosomes: 2.5 fold and 2 fold

Source: patent US20090075925A1, “Methods and Compositions Related to APOBEC-1 Expression” (priority 2006, published 2009)
